According to patent US9850225B2, “Compounds useful as immunomodulators” (BRISTOL-MYERS SQUIBB COMPANY, priority 2014, dated 2017):
pIC50: −log10 of the molar value. Where two headings read alike, the source gives them in different places.

Target: PD-1/PD-L1 interaction (PD-1-Ig / PD-L1-His) (Homo sapiens (Human), UniProt Q9NZQ7)
Assay: PD-1/PD-L1 Homogenous Time-Resolved Fluorescence (HTRF) binding assay
Details: PD-1/PD-L1 HTRF binding assay, read-out: Range or IC50
Excerpt: The ability of the compounds of formula (I) to bind to PD-L1 was investigated using a PD-1/PD-L1 Homogenous Time-Resolved Fluorescence (HTRF) binding assay.
Homogenous Time-Resolved Fluorescence (HTRF) Binding Assay.
The interaction of PD-1 and PD-L1 can be assessed using soluble, purified preparations of the extracellular domains of the two proteins. The PD-1 and PD-L1 protein extracellular domains were expressed as fusion proteins with detection tags, for PD-1, the tag was the Fc portion of Immunoglobulin (PD-1-Ig) and for PD-L1 it was the 6 histidine motif (PD-L1-His). All binding studies were performed in an HTRF assay buffer consisting of dPBS supplemented with 0.1% […] bovine serum albumin and 0.05% (v/v) Tween-20. For the h/PD-L1-His binding assay, inhibitors were pre-incubated with PD-L1-His (10 nM final) for 15 m in 4 μl of assay buffer, followed by addition of PD-1-Ig (20 nM final) in 1 μl of assay buffer and further incubation for 15 m. HTRF detection was achieved using europium crypate-labeled anti-Ig (1 nM final) and allophycocyanin (APC) labeled anti-His (20 nM final). Antibodies were diluted in HTRF detection buffer and 5 μl was dispensed on top of the binding reaction. […] Additional binding assays were established between the human proteins PD-1-Ig/PD-L2-His (20 & 5 nM, respectively) and CD80-His/PD-L1-Ig (100 & 10 nM, respectively). […]

Sequence of PD-1/PD-L1 interaction (PD-1-Ig / PD-L1-His) (Q9NZQ7 other isoform, or with tags, fused parts or gaps): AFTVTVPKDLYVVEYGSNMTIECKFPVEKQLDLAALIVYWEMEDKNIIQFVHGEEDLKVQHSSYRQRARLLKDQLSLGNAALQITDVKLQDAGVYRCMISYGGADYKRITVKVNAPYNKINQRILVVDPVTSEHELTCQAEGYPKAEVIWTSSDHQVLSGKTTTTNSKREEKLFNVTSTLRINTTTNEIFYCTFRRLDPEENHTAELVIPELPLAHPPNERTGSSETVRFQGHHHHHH

| Compound | pIC50 (value given as range class) | pIC50 (numeric value) |
| --- | --- | --- |
| Cc1cc(CNC[C@@H](O)CC(=O)O)c(OCc2cccnc2)cc1OCc1cccc(-c2ccc3c(c2)OCCO3)c1C [Example 1278, (S)-4-((4-((3-(2,3-dihydrobenzo[b][1,4]dioxin-6-yl)-2-methylbenzyl)oxy)-5-methyl-2-(pyridin-3-ylmethoxy)benzyl)amino)-3-hydroxybutanoic acid] | 8.00 to 9.22 | – |
| Cc1c(COc2cc(OCc3cccc(C#N)c3)c(CN[C@@H](Cn3ncnn3)C(=O)O)cc2Cl)cccc1-c1ccc2c(c1)OCCO2 [Example 1227, (S)-2-((5-chloro-2-((3-cyanobenzyl)oxy)-4-((3-(2,3-dihydrobenzo[b][1,4]dioxin-6-yl)-2-methylbenzyl)oxy)benzyl)amino)-3-(2H-tetrazol-2-yl)propanoic acid] | 4.70 to 7.00 | – |
| Cc1c(COc2ccc(CN3CCCC[C@H]3C(=O)O)c(OCc3cccc(C#N)c3)c2Cl)cccc1-c1ccccc1 [Example 1233, (S)-1-(3-chloro-2-(3-cyanobenzyloxy)-4-((2-methylbiphenyl-3-yl)methoxy)benzyl)piperidine-2-carboxylic acid] | 4.70 to 7.00 | – |
| Cc1c(COc2cc(OCc3cccc(C#N)c3)c(CN[C@](C)(CO)C(=O)O)cc2Br)cccc1-c1ccc2c(c1)OCCO2 [Example 1303, (R)-2-((5-bromo-2-((3-cyanobenzyl)oxy)-4-((3-(2,3-dihydrobenzo[b][1,4]dioxin-6-yl)-2-methylbenzyl)oxy)benzyl)amino)-3-hydroxy-2-methylpropanoic acid] | 8.00 to 9.22 | – |
| CC(=O)NCCNCc1ccc(OCc2cccc(-c3ccccc3)c2C)cc1OCC(F)(F)F [Example 1026, N-(2-((4-((2-methyl-[1,1′-biphenyl]-3-yl)methoxy)-2-(2,2,2-trifluoroethoxy)benzyl)amino)ethyl)acetamide] | 4.70 to 7.00 | – |
| CC(=O)NCCNCc1ccc(OCc2cccc(-c3ccccc3)c2C)cc1OCc1ccccc1Cl [Example 1053, N-(2-((2-((2-chlorobenzyl)oxy)-4-((2-methyl-[1,1′-biphenyl]-3-yl)methoxy)benzyl)amino)ethyl)acetamide] | 4.70 to 7.00 | – |
| Cc1c(COc2ccc(CN3CCCC[C@H]3C(=O)O)c(OCc3cccc(C#N)c3)c2Cl)cccc1-c1ccc2c(c1)OCCO2 [Example 1236, (S)-1-(3-chloro-2-(3-cyanobenzyloxy)-4-(3-(2,3-dihydrobenzo[b][1,4]dioxin-6-yl)-2-methylbenzyloxy)benzyl)piperidine-2-carboxylic acid] | 4.70 to 7.00 | – |
| Cc1c(COc2cc(OCc3cccc(C#N)c3)c(CNC(Cc3cn(C)c4ccccc34)C(=O)O)cc2Cl)cccc1-c1ccc2c(c1)OCCO2 (centres unmarked) [Example 1168, 2-((5-chloro-2-((3-cyanobenzyl)oxy)-4-((3-(2,3-dihydrobenzo[b][1,4]dioxin-6-yl)-2-methylbenzyl)oxy)benzyl)amino)-3-(1-methyl-1H-indol-3-yl)propanoic acid] | 4.70 to 7.00 | – |
| Cc1c(COc2ccc(CN[C@H](CO)C(=O)O)c(OCc3cccc(C#N)c3)c2Cl)cccc1-c1ccccc1 [Example 1231, (R)-2-((3-chloro-2-((3-cyanobenzyl)oxy)-4-((2-methyl-[1,1′-biphenyl]-3-yl)methoxy)benzyl)amino)-3-hydroxypropanoic acid] | 4.70 to 7.00 | – |
| CCOC(=O)c1cncc(COc2cc(OCc3cccc(-c4ccc5c(c4)OCCO5)c3C)c(Cl)cc2CN[C@@](C)(CO)C(=O)O)c1 [Example 2000, (S)-2-((5-chloro-4-((3-(2,3-dihydrobenzo[b][1,4]dioxin-6-yl)-2-methylbenzyl)oxy)-2-((5-(ethoxycarbonyl)pyridin-3-yl)methoxy)benzyl)amino)-3-hydroxy-2-methylpropanoic acid] | 4.70 to 7.00 | – |
| Cc1cc(OCc2cccc(-c3ccc4c(c3)OCCO4)c2C)cc(OCc2cncc(C#N)c2)c1CN1CCCC[C@H]1C(=O)O [Example 1009, (S)-1-(2-((5-cyanopyridin-3-yl)methoxy)-4-(3-(2,3-dihydrobenzo[b][1,4]dioxin-6-yl)-2-methylbenzyloxy)-6-methylbenzyl)piperidine-2-carboxylic acid] | 8.00 to 9.22 | – |
| CC(=O)NCCNCc1ccc(OCc2cccc(-c3ccccc3)c2C)cc1OCc1ccc2nc(C(F)(F)F)cc(Cl)c2c1 [Example 1083, N-(2-((2-((4-chloro-2-(trifluoromethyl)quinolin-6-yl)methoxy)-4-((2-methyl-[1,1′-biphenyl]-3-yl)methoxy)benzyl)amino)ethyl)acetamide] | 4.70 to 7.00 | – |
| Cc1c(COc2cc(OCc3cccc(C#N)c3)c(CN[C@@H](C(=O)O)c3ccc(O)cc3)cc2Cl)cccc1-c1ccc2c(c1)OCCO2 [Example 1161, (R)-2-((5-chloro-2-((3-cyanobenzyl)oxy)-4-((3-(2,3-dihydrobenzo[b][1,4]dioxin-6-yl)-2-methylbenzyl)oxy)benzyl)amino)-2-(4-hydroxyphenyl)acetic acid] | 7.00 to 8.00 | – |
| Cc1c(COc2cc(OCc3cncc(C#N)c3)c(CN3CCCC[C@@H]3C(=O)O)cc2Br)cccc1-c1ccc2c(c1)OCCO2 [Example 1323, (R)-1-(5-bromo-2-((5-cyanopyridin-3-yl)methoxy)-4-(3-(2,3-dihydrobenzo[b][1,4]dioxin-6-yl)-2-methylbenzyloxy)benzyl)piperidine-2-carboxylic acid] | 8.00 to 9.22 | – |
| Cc1c(COc2cc(OCc3cncc(C#N)c3)c(CN[C@@H](Cc3cccnc3)C(=O)O)cc2Cl)cccc1-c1ccc2c(c1)OCCO2 [Example 2010, (S)-2-((5-chloro-2-((5-cyanopyridin-3-yl)methoxy)-4-((3-(2,3-dihydrobenzo[b][1,4]dioxin-6-yl)-2-methylbenzyl)oxy)benzyl)amino)-3-(pyridin-3-yl)propanoic acid] | – | 7.30 |
| Cc1c(COc2ccc(CN[C@](C)(CO)C(=O)O)c(OCc3ccc(F)c(C#N)c3)c2)cccc1-c1ccccc1 [Example 1333, (R)-2-((2-((3-cyano-4-fluorobenzyl)oxy)-4-((2-methyl-[1,1′-biphenyl]-3-yl)methoxy)benzyl)amino)-3-hydroxy-2-methylpropanoic acid] | 8.00 to 9.22 | – |
| CC(=O)NCCNCc1ccc(OCc2cccc(-c3ccccc3)c2C)cc1OCc1cccc(OC(F)(F)F)c1 [Example 1082, N-(2-((4-((2-methyl-[1,1′-biphenyl]-3-yl)methoxy)-2-((3-(trifluoromethoxy)benzyl)oxy)benzyl)amino)ethyl)acetamide] | – | 6.08 |
| COc1cc(OCc2cccc(-c3ccccc3)c2C)cc(OCc2cccc(C#N)c2)c1CN[C@H](C(=O)O)[C@H](C)O [Example 1136, (2S,3S)-2-((2-((3-cyanobenzyl)oxy)-6-methoxy-4-((2-methyl-[1,1′-biphenyl]-3-yl)methoxy)benzyl)amino)-3-hydroxybutanoic acid] | 8.00 to 9.22 | – |
| Cc1c(COc2ccc(CN[C@H](CO)CC(=O)O)c(OCc3cccc(C#N)c3)c2)cccc1-c1ccccc1 [Example 1021, (S)-3-((2-((3-cyanobenzyl)oxy)-4-((2-methyl-[1,1′-biphenyl]-3-yl)methoxy)benzyl)amino)-4-hydroxybutanoic acid] | 8.00 to 9.22 | – |
| Cc1c(COc2ccc(CNC[C@@H](O)CC(=O)O)c(OCc3cccc(C#N)c3)c2Cl)cccc1-c1ccc2c(c1)OCCO2 [Example 1240, (S)-4-((3-chloro-2-((3-cyanobenzyl)oxy)-4-((3-(2,3-dihydrobenzo[b][1,4]dioxin-6-yl)-2-methylbenzyl)oxy)benzyl)amino)-3-hydroxybutanoic acid] | 4.70 to 7.00 | – |
